The values below come from a melting point compilation (Tetko et al.).

As for `CC(=O)c1c(-c2c(Cl)cccc2Cl)noc1C`, the melting point (usually the temperature of the solid-liquid transition) was in the range of 72 to 74 °C.
As to `CN1CCNCC1`, the melting point was -6 °C.
As for `CC1(C)OC[C@H](CC(N)=O)O1`, the figure is 108 to 109 °C; as for `O=Cc1cccc2c(Br)cccc12`, 105 °C; as for `CN(C)c1ccc(N=Nc2ccc([N+](=O)[O-])cc2)cc1`, 236 °C.
The figure for `CCOC(=O)c1ccc(F)cc1F` is 65 to 67 °C; for `NNC(=O)C(=O)NC1CCCCC1` it is 238 °C; for `OCc1cc(O)ccc1O` it is 100 °C.
For `CC(C)(C)OC(=O)N[C@@H](Cc1cccc(C#N)c1)C(=O)O`, the melting point was 124 °C.
`O=c1c(O)c(O)c1=O` had a melting point of 293 °C.
As for `NC(=S)c1ncc(C(F)(F)F)cc1Cl`, the figure is 135 to 136 °C.
As to `CCOC(=O)c1cnc2c(c(C)nn2C)c1Oc1ccc(F)cc1`, the melting point was in the range of 110 to 112 °C.
As for `COc1cc(Br)c(CC(=O)O)cc1OC`, the melting point lay within 94 to 96 °C.
As for `CC(=O)Oc1c(C)cc(O)c(C)c1C`, the figure is 108 to 109 °C.
In the case of `CCOC(=O)C=Cc1cccc(C=CC(=O)OCC)c1`, the melting point amounted to 53.5 °C.
`C=CCn1c(SC)nc2ccccc2c1=O` registered a melting point of 75 to 77 °C.
The compound `Nc1cccnc1Oc1ccccc1F` yielded a melting point of 87 to 89 °C.
As for `CCCCCCCCCCCCCCC=O`, the figure is 24.5 °C; as for `O=C(Nc1nnc(-c2ccc(Cl)cc2)o1)c1ccc(Cl)cc1Cl`, 212 to 213 °C; as for `CC12CCC3c4ccc(OC(=O)Cc5ccc(N(CCCl)CCCl)cc5)cc4CCC3C1CCC2OC(=O)Cc1ccc(N(CCCl)CCCl)cc1` (configuration not stated), 52.5 °C.
The compound `C=CC1CNCCC1CCC(=O)c1ccnc2ccc(OC)cc12` (configuration not stated) returned a melting point of 60 °C.
In the case of `COc1cc(C)c(CCl)cc1CCl`, the melting point was 78 °C.
`COC(=O)c1ccc2cc[nH]c2c1`: the melting point is 79 °C.
The figure for `NNC(=O)COc1ccc(Cl)cc1Cl` is 153 to 157 °C.
`O=S(=O)(O)CC(O)CN1CCOCC1` (configuration not stated) registered a melting point of 273 to 274 °C.
`CCCCCCCCCCCCCCCCCCI`: the melting point was 34 °C.
As for `Cc1ccc(-n2c(C)nc3cc([N+](=O)[O-])ccc32)cc1`, the figure is 152 °C; as for `C=CCc1ccc(OC(C)=O)c(OC)c1`, 30.5 °C; as for `O=C(C(=O)c1ccc([N+](=O)[O-])cc1)c1ccccc1`, 141 to 143 °C.
The figure for `C=C=C` is -136 °C.
For `O=C(NNC(=O)c1ccc(Cl)cc1)c1ccc(Cl)cc1`, the melting point was 260 °C.
The figure for `NNC(=O)c1cc2ccccc2cc1O` is 206 to 208 °C; for `O=CC(C=O)c1ccc(Cl)cc1` it is 137 to 143 °C; for `C=CCOc1c(Cc2cc(C(C)=O)c(O)c(C)c2OCC=C)cc(C(C)=O)c(O)c1C` it is 143 °C.
On to `O=Cc1ccc(-c2nccs2)cc1`, for which the melting point fell in the range of 90 to 91 °C.
`COc1cc(C=O)ccc1F` yielded a melting point of 62 °C.
In turn, `Cc1ccc(O)c(C)n1` registered a melting point of 210 to 212 °C.
In turn, `CCc1ccc2c(c1)CCCC2` returned a melting point of -70 °C.
`Cn1c(=O)c(C2=NNC(=O)C2)c(O)c2ccccc21` displayed a melting point of 287 °C.
Compound `CCCCCCCCn1c(=O)c2cc3c(OC)c4cc5c(=O)n(CCCCCCCC)c(=O)c5cc4c(OC)c3cc2c1=O` yielded a melting point of 238 °C.
As for `C#CCOCc1cc(COCC#C)c(COCC#C)cc1COCC#C`, the figure is 66 °C; as for `CN1CCOc2cc(C(=O)O)cnc21`, 232 to 280 °C.
As for `CC(C)(C)N=O`, the figure is 81 to 83 °C; as for `C1CN(SSN2CCOCC2)CCO1`, 124 °C; as for `Cc1ccc(C)c([N+](=O)[O-])c1`, -25 °C.
In turn, `O=Cc1cccc(-c2ccsc2)c1` had a melting point of 48 to 49 °C.
Consider `Cc1c(C(=O)CBr)cnn1-c1ccccc1`, for which the melting point lay within 94 to 96 °C.
As to `O=C(COc1ccc2ccccc2c1)ON1C(=O)CCC1=O`, the melting point was in the range of 150 to 152 °C.
The figure for `O=C(O)c1ccc(-c2ccccc2)nc1` is 243 to 245 °C; for `N#Cc1ccc(N2CCNCC2)nc1` it is 131 °C; for `Cc1cccc(N(C)C(=S)Oc2ccc3ccccc3c2)c1` it is 111 °C.
For `Nc1cc(C(F)(F)F)ccc1N1CCCCC1`, the melting point is 41 to 43 °C.
In turn, `CC(=O)C1CCC2C3CC(C)C4=CC(=O)CCC4(C)C3C(O)CC12C` (configuration not stated) had a melting point of 156 °C.
The figure for `Nc1c(Cl)cc(Br)cc1Cl` is 87 °C; for `C1CCCCCC1` it is -8 °C; for `Cc1cc2ccccc2cc1COC(=O)C(F)(F)F` it is 92 °C.
Take `NC(=S)COc1ccccc1Cl`: the melting point was 116 to 117 °C.
The compound `Cc1c(Br)cc(N)cc1Br` returned a melting point of 91 °C.
Turning to `CC(C)CCCC(C)C1CCC2C3CCC4CCCCC4(C)C3CCC12C` (configuration not stated), the melting point fell in the range of 79 to 80 °C.
For `N#Cc1ccc(Br)cc1F`, the melting point is 71 °C.
As for `COc1ccc(P(c2ccc(OC)cc2)c2ccc(OC)cc2)cc1`, the figure is 131 to 134 °C.
Compound `CC(O)CC(C)(C)O` (configuration not stated) came in with a melting point of -40 °C.
For the compound `Clc1nc(Cl)c(Cl)c(Cl)n1`, the melting point was 69 °C.
As for `Cc1ccc(C(=S)N2CCCCC2)cc1`, the figure is 93 °C; as for `CNC(=O)Oc1cc(C)cc(C)c1`, 99 °C; as for `Nc1ccc2ccccc2c1S(=O)(=O)O`, 180 °C.
Turning to `Nc1ccncc1C(F)(F)F`, the melting point was determined as 100 °C.
Compound `O=C1C(c2ccc(Br)cc2)=C(O)c2ccccc21` registered a melting point of 137 to 138 °C.
`Cn1c(N)cc(=O)[nH]c1=O` came in with a melting point of 300 °C.
In the case of `Cc1ccc2cccc(Cl)c2n1`, the melting point worked out at 67 °C.
`O=C(O)C1NCCS1` (configuration not stated) returned a melting point of 182 °C.
Consider `CC(C)C(=O)OCC(C)(C)C(O)C(C)C` (configuration not stated), for which the melting point is -50 °C.
`Cc1cc2ncn(C3OC(CO)C(O)C3O)c2cc1C` (configuration not stated) came in with a melting point of 198 °C.
In turn, `C#CCCC#C` displayed a melting point of -6 °C.
Turning to `COc1ccc(C2Sc3ccccc3NC(=O)C2O)cc1` (configuration not stated), the melting point lay in the range of 203 to 207 °C.
On to `CC1(C)CC(=O)CC(C)(C)C1`, for which the melting point was 11 to 12 °C.
On to `O=C1OC(=O)C23Cc4ccccc4CC12Cc1cc2c(cc1C3)CC2` (configuration not stated), for which the melting point lay within 248 to 252 °C.
Take `COC(=O)c1ccc(N2CCCCC2)nc1`: the melting point lay within 70 to 72 °C.
`COc1ccc2c(c1)CC1(CCC(=O)CC1)C2=O`: the melting point is 93 °C.
As to `Cc1cc(I)cnc1NC(=O)C(C)(C)C`, the melting point was found to be 143 °C.
The compound `CCCCC1C(=O)N(c2ccccc2)N(c2ccc(O)cc2)C1=O` (configuration not stated) gave a melting point of 124 °C.
The figure for `CC(C)(C)N(NC(=O)c1ccccc1)C(=O)c1ccc(Cl)cc1Cl` is 134 °C; for `O=[N+]([O-])c1ccccc1C(Cl)C(Cl)c1ccccn1` (configuration not stated) it is 144 °C; for `Oc1ccccc1C(O)c1ccccc1` (configuration not stated) it is 88 °C.
As for `O=C(O)c1cc(O)c(O)c(O)c1`, the figure is 253 °C; as for `N#CC12CCN(CC1)CC2`, 133 °C; as for `CCC(=O)OC1CCC2(C)C(=CCC3C2CCC2(C)C(C(C)CCCC(C)C)CCC32)C1` (configuration not stated), 97 to 100 °C.
`COc1cccc(C(=O)O)c1OC`: the melting point was determined as 123 °C.
Consider `CCOC(=O)C(C(C)=O)C(C)C(C(C)=O)C(=O)OC1CC(C)CCC1C(C)C` (configuration not stated), for which the melting point worked out at 155 °C.
`CC(=O)c1ccc(N2CCCCC2)cc1`: the melting point lay in the range of 84 to 90 °C.
`NNC(=O)c1cccc(N)c1` came in with a melting point of 92 °C.
Compound `OC(O)C(F)(F)C(F)(F)C(F)(F)C(F)(F)C(F)(F)C(F)(F)C(F)(F)C(F)(F)F` showed a melting point of 91 to 94 °C.
On to `Fc1ccc(Br)c2ccccc12`, for which the melting point came to 35 °C.
The figure for `CC(NC(CCc1ccccc1)C(=O)O)C(=O)N1CCCC1C(=O)O` (configuration not stated) is 150 °C; for `O=[N+]([O-])c1ccc(S(F)(F)(F)(F)F)cc1` it is 38 °C; for `ClCCCCCCCCCCCl` it is 15.6 °C.
With `CC(C)CC1=CC(=Cc2ccc(-c3ccc(Br)cc3)o2)C(=O)O1`, the melting point lay within 107 to 108 °C.
The figure for `N[C@@H](Cc1ccc(F)cc1)C(=O)O` is 253 °C; for `N#Cc1ccc(-c2ccc(C(F)(F)F)cn2)cc1` it is 123 to 124 °C.
`Cc1nc(-c2ccc(S(=O)(=O)Cl)cc2)cs1` came in with a melting point of 111 to 112 °C.
`CC(C)CCOc1ccc(NC(=S)Nc2ccc(OCCC(C)C)cc2)cc1` showed a melting point of 146 °C.
With `C[Si](C)(C)O[Si](C)(C)O[Si](C)(C)O[Si](C)(C)C`, the melting point was -68 °C.
`CC(CO)(NC(=O)c1ccccc1)C(=O)O` (racemic) gave a melting point of 153 to 159 °C.
As for `CC(C)(C)c1ccc(OC(=O)c2ccccc2O)cc1`, the figure is 62 °C.
Consider `O=C(O)c1cccc(-c2ncccn2)c1`, for which the melting point was 180 to 182 °C.
The compound `O=C(O)C12CC3CC(CC(Br)(C3)C1)C2` showed a melting point of 147 to 148 °C.
In turn, `CCCCC(CC)COC(=O)c1ccc(C(=O)OCC(CC)CCCC)cc1` (configuration not stated) registered a melting point of 30 to 34 °C.
In turn, `Clc1c(Cl)c(Cl)c(C(Cl)Cl)c(Cl)c1Cl` showed a melting point of 120 °C.
Regarding `CC(=O)c1c(O)ccc2ccccc12`, the melting point came to 65 °C.
As for `NNC(=O)CSc1ccccc1[N+](=O)[O-]`, the figure is 161 to 171 °C; as for `Nc1ncnc2c1ncn2C1OC(CO)C(OP(=O)(O)O)C1O` (configuration not stated), 197 °C; as for `Nc1cccc(CN2CCOCC2)c1`, 73 to 75 °C.
